# Measurements taken from US20080311103A1, “Anti-Inflammatory Peptides and Methods of Use Thereof” (YEDA RESEARCH AND DEVELOPMENT CO. LTD. at THE WEIZMANN …, priority 2004, published 2008).
# What was measured:
# [1] = tested on: anti-CD3 antibody induced TNFα secretion from T cells; experiment: TNFα secretion by anti-CD3 activated T cells; type: cell-based, human; settings: peptide 100 ng/ml; 24 hours; ELISA; FIG. 7A
# Description: (§1) Human T cells were purified and maintained in culture (RPMI containing 10% FCS, 1% Pyruvate, 1% glutamine, 1% antibiotics, 7.5% CO2, humidified atmosphere) for 15 hr before they were transferred to RPMI and activated (2 hr, 37° C.) with the indicated concentrations of the peptides. The cells were then plated (1.5×10^6 cells/0.5 ml/well) in 24 wells plates (non-tissue culture grade) precoated with anti-CD3 mAb in order to stimulate the cells to secrete cytokines. After 24 hours, the supernatants were collected and their cytokine content (TNFα and IFNγ) was determined by ELISA using anti-IFNγ and anti TNFα mAb (Pharmingen; San Diego, Calif.) according to the manufacturer's instructions.
# NF-κB = experiment: Nuclear translocation of NF-κB in T cells (Western blot); type: cell-based; settings: peptide 100 ng/ml for 2 hours, then anti-CD3 mAb 24 hr; human T cells
# Text: To address the modulatory role of the wound fluid peptides on the signal transduction cascade leading to regulation of T-cell secretion of TNF-α(and IFN-γ, the nuclear translocation of NF-κB was detected by probing nuclear and cytoplasmic T-cell extracts using mAb specific for the p65 subunit of NF-κB. The nuclear protein Lamin B was used as continuatively expressed control protein for the quantification of protein amounts.
# Human T cells. T cells were purified from the peripheral blood of healthy human donors (Blood Bank; Tel-Hashomer, Israel). The whole blood was incubated (20 min, 22° C.) with RosetteSep™ human T-cell enrichment cocktail (StemCell Technologies, Vancouver, BC, Canada). The remaining unsedimented cells were then loaded onto Lymphocyte Separation Medium (ICN Biomedicals; Belgium), isolated by density centrifugation, and washed with PBS. The purified cells (>95% CD3^+ T cells) so obtained were cultured in RPMI containing antibiotics and 10% heat-inactivated FCS. Western blot analysis of T-cell nuclear extracts. Purified T cells (5×10^6) were preincubated with the peptides (100 ng/ml) for 2 hours (37° C. in a 7% CO2, humidified atmosphere). The cells were then replated in 24-well plates pre-coated with anti-CD3 mAb for 24 hr (37° C. in a 7% CO2, humidified atmosphere). T cells were lysed in 10 mM HEPES, 1.5 mM MgCl2, 1 mM dithiothreitol (DTT), 1 mM PMSF, 0.5% Nonidet P-40. The lysates were incubated on ice for 10 min and centrifuged at 2000 rpm for 10 min at 4° C. The supernatants (cytoplasmic extracts) were transferred and the pellet (nuclei) was suspended in buffer containing 30 mM HEPES, 450 mM NaCl, 25% Glycerol, 0.5 mM EDTA, 6 mM DTT, 12 mM MgCl2 1 mM PMSF, 10 μg/ml leupeptin, 10 μg/ml pepstatin, 1% phosphatase inhibitor cocktail, and the suspension was incubated on ice for 30 min. The lysates were cleared by centrifugation (30 min, 14×10^3 rpm, 4° C.), and the resulting supernatants analyzed for protein content. […]
# [2] = tested on: anti-CD3 antibody induced IFNγ secretion from T cells; experiment: IFNγ secretion by anti-CD3 activated T cells; type: cell-based, human; parameters: concentration or dose not given beside the values; settings: 24 hours; ELISA; FIG. 7B
# Description: as §1
# Jurkat and THP-1 cells = experiment: TNFα secretion by PMA/PHA induced Jurkat and THP-1 cells; type: cell-based, human; settings: peptide 1 μg/ml; 48 hours; ELISA
# Description: Jurkat cells human T cell lymphoma line) (2×10^6 cells/ml) cultured in RPMI-1640 supplemented with 10% FCS were activated with PMA (50 ng/ml) and phytohaemagglutinin PHA (4 µg/ml) for 6 hours at 37° C. (7.5% CO2-humidified atmosphere). Thereafter, the cells were washed, plated on 24-well plates (10^6 cells/well in 0.5 ml), and incubated (1 hour at 37° C., 7.5% CO2-humidified atmosphere) with the indicated concentrations of peptides 1-5. Following the incubation, THP-1 cells (human monocytic cell line derived from a patient with acute monocytic leukaemia; 1.25×10^5 cells/0.5 ml/well) were added to the wells. After 48 hours, the supernatants were collected and their TNF[…] content was determined by ELISA using anti TNF[…] mAb (Pharmingen; San Diego, Calif.) according to the manufacturer's instructions.
# T cells = experiment: Chemotaxis assay: T cell migration toward SDF-1α; type: cell-based; settings: concentration range 10-1000 ng/ml; SDF-1α 250 ng/ml; 3 hr
# Description: The migration of ^51-[Cr]-labeled T cells was examined in […] Transwell chemotaxis apparatus (6.5-mm diameter; Corning, N.Y.), consisting of two compartments separated by polycarbonate filters (5 μm pore size) pretreated (1 hr, 37° C.) with FN (25 μg/ml). ^51-[Cr]-labeled T cells (2×10^5 in 100 μl of RPMI containing 0.1% BSA and antibiotics), which were pre-incubated with the indicated concentrations of peptides (30 min, 37° C.), were added to the upper chambers. The bottom chambers contained 0.6 ml of the same media, with or without human Stromal cell-Derived Factor-1α (SDF-1α; 250 ng/ml). After incubation at 37° C. for 3 hr (7.5% CO2-humidified atmosphere), cells that had transmigrated into the lower wells were collected, centrifuged, and lysed (in 100 μl of distilled water containing 1 M NaOH and 0.1% Triton X-100), and the radioactivity in the resulting supernatants was determined with a γ-counter. The percentage (±SD) of cell migration was calculated as the radioactivity counts in the lysates of the lower chambers (representative of the migrating cells) divided by the total counts (representative of 2×10^5 cells).
# [3] = tested on: mice sensitized with oxazolone; type: in vivo, mouse; settings: FIG. 1; peptides by implanted osmotic pump, 0.2 μg/hour for 7 days; ear measured 24 hours after oxazolone challenge; BALB/c mice
# Description: Groups of 5 female inbred BALB/c mice (The Jackson Laboratory, Bar Harbor, Me.) were sensitized on the shaved abdominal skin with 2% oxazolone (100 μl) dissolved in acetone/olive oil [4:1 (vol/vol)] applied topically. Delayed type hypersensitivity (DTH) was elicited 5 days later by challenging the mice with 0.5% oxazolone in acetone/olive oil (10 μl given topically to each side of the ear). A constant area of the ear was measured immediately before and 24 hours after the challenge using a Mitutoyo engineer's micrometer. The percent inhibition of DTH is calculated as follows:
# % Inhibition=[1-{(treated−negative control)/(positive control−negative control)}]×100.
# The positive control is the DTH reaction to oxazolone elicited in sensitized mice without treatment. The negative control is the background swelling produced by the oxazolone antigen in naïve non-sensitized mice.
# Peptides Nos. 1-5 were given to the mice by mini perfusion pumps (alzet osmotic pump model 2001), which contained the indicated peptide (40 μg; 200 μl). The pumps were implanted under the mouse skin one day before oxazolone sensitization and they released the peptide in a rate of 1 μl per hour (0.2 μg/hour) for 7 days.
# Peptides Nos. 6-10 were given to the mice by subcutaneously injection (1 μg or 10 μg per mouse), every day, starting at one day before oxazolone sensitization and ending at day 5 post DTH initiation.
# BALB/C mice = experiment: Con A-induced hepatic injury (acute hepatitis model); type: in vivo; settings: 50 μg/mouse intraperitoneally, 2 or 3 injections before ConA, especially after 3 treatments; FIG. 10B
# Description: Con A (13 mg/kg) was administered i.v. to BALB/c mice 18 hours before analysis (Bonder, C. S. et al. 2004. J. Immunol. 172: 45-53). Mice were intraperitoneally injected with the peptides of the invention 48 and 2 hours before ConA injection.
# Blood analysis: 18 hours after Con A injection, blood was obtained by cardiac puncture for detection of serum alanine aminotransferase (ALT) and aspartate aminotransferase (AST). The presence of these two enzymes in serum is used as an index of hepatocellular injury. The detection of ALT and AST was performed by a commercial kit for ALT and AST (Bayer Diagnostics, Tarry town, NY, USA) using an automated Monarch Monoanalyzer 2000 (Allied, Lexington, Mass.).
sequence,measurement,setting,value
"LSALEEYTKKLNTQ [peptide No. 2, residues 254-267 of Apo A-I; identified in wound fluids, then synthesized]",inhibition of anti-CD3 antibody induced TNFα secretion from T cells,[1],40%
same,NF-κB translocation to the nucleus,NF-κB,significant down-regulation
same,inhibition of anti-CD3 antibody induced IFNγ secretion from T cells,[2],~30%
same,inhibition of TNFα secretion by Jurkat and THP-1 cells compared to PMA/PHA alone,Jurkat and THP-1 cells,10%
same,inhibition of T cell transmigration toward SDF-1α,T cells,did not show a significant inhibition
same,inhibition of DTH response,[3],hardly inhibited
same,resistance to ConA induced hepatitis,BALB/C mice,marked resistance
